Test results from article PMC11470957, “Principles of paralog-specific targeted protein degradation engaging the C-degron E3 KLHDC2” (Nature Communications, 2024).
Entries after “also recorded” stand apart in the source; their conditions may differ.

System: KLHDC2, KLHDC3, KLHDC10, KLHDC1 E3 ligases

## O=C(O)CNC(=O)Cc1csc(-c2ccc3ccccc3c2)n1 [SJ46411]
Inhibition of SELK ubiquitylation
  selectivity towards KLHDC2 over other KLHDC family members: at least two orders-of-magnitude
Ligand alone, Fig S5b, c
  inhibition of substrate ubiquitylation by Kelch family E3 ligases other than KLHDC2: does not show substantial effects; also recorded: largely inactive
